Source: PubChem BioAssay (NCI)
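Protocol summary: plate cells (96-well), add compound at 5 concentrations, incubate 48 h, interpolate endpoints linearly. TGI denotes the concentration required for complete inhibition of growth.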

Tests used:
Assay in all cases: growth of human tumour cells (NCI), 48 h
[1] = system: A549 NSCLC
[2] = system: DU-145 prostate
[3] = system: NCI-H23 lung
[4] = system: SK-MEL-5 melanoma
[5] = system: MALME-3M melanoma
[6] = system: IGROV1 ovarian
[7] = system: SF-295 CNS
[8] = system: RXF 393 renal
[9] = system: HCT-116 colon
[10] = system: SF-539 CNS
[11] = system: SK-OV-3 ovarian
[12] = system: HL-60(TB) leukemia
[13] = system: CCRF-CEM leukemia
[14] = system: OVCAR-8 ovarian
[15] = system: SW-620 colon
[16] = system: SK-MEL-2 melanoma
[17] = system: HCC-2998 colon
[18] = system: UACC-257 melanoma
[19] = system: MDA-MB-231 breast
[20] = system: NCI/ADR-RES ovarian
[21] = system: MDA-MB-435
[22] = system: HOP-62 NSCLC
[23] = system: K-562 leukemia
[24] = system: HOP-92 NSCLC
[25] = system: COLO 205 colon
[26] = system: T-47D breast
[27] = system: UACC-62 melanoma
[28] = system: 786-0 renal
[29] = system: OVCAR-4 ovarian
[30] = system: LOX IMVI melanoma
[31] = system: NCI-H460 lung
[32] = system: A498 renal
[33] = system: ACHN renal
[34] = system: RPMI-8226 leukemia
[35] = system: EKVX NSCLC
[36] = system: SNB-19 CNS
[37] = system: SR leukemia
[38] = system: U251 CNS
[39] = system: NCI-H522 lung
[40] = system: NCI-H226 lung
[41] = system: MCF7 breast
[42] = system: SNB-75 CNS
[43] = system: HT29 colon
[44] = system: SN12C renal
[45] = system: OVCAR-5 ovarian
[46] = system: SK-MEL-28 melanoma
[47] = system: CAKI-1 renal
[48] = system: HS 578T breast
[49] = system: M14 melanoma
[50] = system: TK-10 renal
[51] = system: SF-268 CNS
[52] = system: OVCAR-3 ovarian
[53] = system: MDA-N
[54] = system: PC-3 prostate
[55] = system: HCT-15 colon
[56] = system: KM12 colon

Measured: TGI

CC1(c2ccccc2)N=C(C(N)=O)c2[nH]cnc2N1 (stereo unspecified)
> 100 µM: all assays above
